Experimental findings from ChEMBL document CHEMBL1201862, “PubChem BioAssay data set” (2004) are described below.

Calls of active or inactive are those of the source.

Usually IC50 stands for the concentration at which inhibition is half-maximal. What is called AC50 is the midpoint of the concentration-response curve, whichever way the signal moves. The term Ki denotes the equilibrium dissociation constant of an inhibitor or competing ligand from its target.

In assay [1] the test system is Jurkat. Kind of assay: antigen receptor-induced NF-kB inhibitors, dose response, Jurkat, luciferase reporter, luminescence, B- and T-cell (AID 489004).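 Also: NF-kB luciferase reporter Jurkat cells stimulated with PMA plus ionomycin.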 It is filed as functional, cell-based. The conditions noted are these: Homo sapiens. In general terms: In a reporter assay the amount or activity of a reporter protein is the signal.
The target of assay [2] is T1, Caspase-3 (Homo sapiens, UniProt P42574).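 Also: Dose-response selectivity test against caspase-3 for candidate inhibitors of sentrin-specific proteases (SENPs).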
T1 sequence (P42574 whole entry): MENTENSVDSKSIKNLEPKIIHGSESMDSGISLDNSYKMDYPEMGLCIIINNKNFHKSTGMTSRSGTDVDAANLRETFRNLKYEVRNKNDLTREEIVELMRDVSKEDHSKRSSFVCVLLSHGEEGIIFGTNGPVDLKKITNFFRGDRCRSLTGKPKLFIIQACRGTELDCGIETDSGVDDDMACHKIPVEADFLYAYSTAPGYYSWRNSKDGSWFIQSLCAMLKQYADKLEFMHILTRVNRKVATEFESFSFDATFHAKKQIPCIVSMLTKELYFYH
It is filed as functional.

Assay [3] concerns the target Cytochrome P450 2C9 (Homo sapiens, UniProt P11712).
For assay [4], the target named is Serine/threonine-protein kinase PLK4 (Homo sapiens, UniProt O00444). It is filed as functional.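 Also: PLK4 measured as one member of a kinome-wide kinase profiling panel.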
The target of assay [5] is Tyrosine-protein kinase Lyn (Homo sapiens, UniProt P07948). It is filed as functional.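 Also: lyn as one member of a kinase panel.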
For assay [6], the target named is High affinity nerve growth factor receptor (Homo sapiens, UniProt P04629). Format: functional.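 Also: NTRK1 tested as one member of a kinome-wide profiling panel.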
For assay [7], the target named is Protein kinase C gamma type (Homo sapiens, UniProt P05129). It is filed as functional.
Assay [8] concerns the target Proto-oncogene tyrosine-protein kinase Src (Homo sapiens, UniProt P12931). It is filed as functional.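 Also: SRC entry within a kinome-wide kinase profiling panel.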
Assay [9] has as its target Tyrosine-protein kinase Fer (Homo sapiens, UniProt P16591). It is filed as functional.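 Also: FER tested as one member of a kinome panel.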
In assay [10] the target is Fibroblast growth factor receptor 3 (Homo sapiens, UniProt P22607). It is filed as functional.
Assay [11] has as its target BDNF/NT-3 growth factors receptor (Homo sapiens, UniProt Q16620). Format: functional.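 Also: NTRK2 measured as one member of a broad kinome-wide kinase profiling panel.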
Assay [12] addresses Mitogen-activated protein kinase kinase kinase kinase 4 (Homo sapiens, UniProt O95819). It is filed as functional.
For assay [13], the target named is T2, Tyrosine-protein phosphatase non-receptor type 7 (Homo sapiens, UniProt P35236).
T2 sequence (P35236 whole entry): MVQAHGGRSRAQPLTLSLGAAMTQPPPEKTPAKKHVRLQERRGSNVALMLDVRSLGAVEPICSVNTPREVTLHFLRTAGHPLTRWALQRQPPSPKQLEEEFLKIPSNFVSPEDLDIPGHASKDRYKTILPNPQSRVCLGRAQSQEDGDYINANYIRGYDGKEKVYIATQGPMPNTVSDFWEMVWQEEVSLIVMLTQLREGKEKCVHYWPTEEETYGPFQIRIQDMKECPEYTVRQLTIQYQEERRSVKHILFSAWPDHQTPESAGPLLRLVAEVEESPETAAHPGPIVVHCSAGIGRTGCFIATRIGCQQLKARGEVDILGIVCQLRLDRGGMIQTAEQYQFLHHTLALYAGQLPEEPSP
It is filed as functional.

The target in assay [14] is T3, Apoptotic protease-activating factor 1 (Homo sapiens, UniProt O14727).
T3 sequence (O14727 whole entry): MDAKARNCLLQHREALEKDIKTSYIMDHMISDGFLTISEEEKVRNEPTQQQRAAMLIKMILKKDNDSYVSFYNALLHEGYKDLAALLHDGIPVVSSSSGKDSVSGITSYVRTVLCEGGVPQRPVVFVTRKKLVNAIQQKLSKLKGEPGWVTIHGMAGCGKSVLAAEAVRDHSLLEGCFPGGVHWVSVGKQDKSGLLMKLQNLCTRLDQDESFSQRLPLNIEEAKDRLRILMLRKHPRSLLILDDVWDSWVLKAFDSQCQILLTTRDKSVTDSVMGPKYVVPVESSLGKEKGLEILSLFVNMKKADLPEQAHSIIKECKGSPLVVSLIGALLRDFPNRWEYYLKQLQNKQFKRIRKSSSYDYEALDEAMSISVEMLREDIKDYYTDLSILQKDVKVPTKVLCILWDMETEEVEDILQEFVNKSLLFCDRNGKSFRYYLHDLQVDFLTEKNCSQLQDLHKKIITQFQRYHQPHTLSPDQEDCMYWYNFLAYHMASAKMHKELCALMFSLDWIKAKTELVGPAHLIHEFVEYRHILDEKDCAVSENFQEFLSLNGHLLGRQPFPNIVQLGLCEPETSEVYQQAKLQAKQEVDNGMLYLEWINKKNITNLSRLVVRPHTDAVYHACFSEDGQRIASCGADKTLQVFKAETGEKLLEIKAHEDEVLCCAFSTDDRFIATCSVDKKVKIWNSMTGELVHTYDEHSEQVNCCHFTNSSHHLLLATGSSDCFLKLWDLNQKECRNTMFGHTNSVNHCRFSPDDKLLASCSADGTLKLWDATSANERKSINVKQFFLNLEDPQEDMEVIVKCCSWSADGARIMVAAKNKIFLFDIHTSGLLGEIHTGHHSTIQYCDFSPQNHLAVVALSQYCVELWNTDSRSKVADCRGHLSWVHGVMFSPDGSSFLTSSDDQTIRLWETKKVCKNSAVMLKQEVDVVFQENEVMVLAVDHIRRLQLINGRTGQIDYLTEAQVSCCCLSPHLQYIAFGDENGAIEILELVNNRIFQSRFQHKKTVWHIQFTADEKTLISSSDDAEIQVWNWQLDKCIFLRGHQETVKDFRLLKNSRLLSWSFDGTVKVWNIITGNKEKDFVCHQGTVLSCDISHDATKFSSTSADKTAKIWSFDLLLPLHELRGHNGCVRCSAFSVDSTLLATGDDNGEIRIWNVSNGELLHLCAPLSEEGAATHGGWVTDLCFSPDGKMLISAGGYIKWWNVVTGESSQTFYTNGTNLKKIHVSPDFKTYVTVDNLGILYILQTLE
It is filed as functional.

Assay [15] concerns the target Ras and Rab interactor 1/Tyrosine-protein kinase ABL1 (Homo sapiens, UniProt P00519+Q13671). It is filed as functional.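 Also: biochemical TR-FRET dose-response test measuring inhibition of binding between Rin1 and Abl proteins.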
The target of assay [16] is Paired box protein Pax-8 (Homo sapiens, UniProt Q06710). In words: inhibitors of PAX8-driven TPO luciferase reporter, dose response, RMG-I cells, cherry-pick (AID 687027).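 Also: luciferase reporter driven by Pax8 target thyroperoxidase promoter measured by SteadyGlo luminescence.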 Format: functional, cell-based.
A short description of assay [17]: inhibitors of CMV-promoter luciferase reporter, dose response, counter-screen for Pax8 inhibitor project, cell-based, HEK293, luminescence, dry powder (AID 743020). Format: functional.

Sequence of High affinity nerve growth factor receptor (P04629 whole entry): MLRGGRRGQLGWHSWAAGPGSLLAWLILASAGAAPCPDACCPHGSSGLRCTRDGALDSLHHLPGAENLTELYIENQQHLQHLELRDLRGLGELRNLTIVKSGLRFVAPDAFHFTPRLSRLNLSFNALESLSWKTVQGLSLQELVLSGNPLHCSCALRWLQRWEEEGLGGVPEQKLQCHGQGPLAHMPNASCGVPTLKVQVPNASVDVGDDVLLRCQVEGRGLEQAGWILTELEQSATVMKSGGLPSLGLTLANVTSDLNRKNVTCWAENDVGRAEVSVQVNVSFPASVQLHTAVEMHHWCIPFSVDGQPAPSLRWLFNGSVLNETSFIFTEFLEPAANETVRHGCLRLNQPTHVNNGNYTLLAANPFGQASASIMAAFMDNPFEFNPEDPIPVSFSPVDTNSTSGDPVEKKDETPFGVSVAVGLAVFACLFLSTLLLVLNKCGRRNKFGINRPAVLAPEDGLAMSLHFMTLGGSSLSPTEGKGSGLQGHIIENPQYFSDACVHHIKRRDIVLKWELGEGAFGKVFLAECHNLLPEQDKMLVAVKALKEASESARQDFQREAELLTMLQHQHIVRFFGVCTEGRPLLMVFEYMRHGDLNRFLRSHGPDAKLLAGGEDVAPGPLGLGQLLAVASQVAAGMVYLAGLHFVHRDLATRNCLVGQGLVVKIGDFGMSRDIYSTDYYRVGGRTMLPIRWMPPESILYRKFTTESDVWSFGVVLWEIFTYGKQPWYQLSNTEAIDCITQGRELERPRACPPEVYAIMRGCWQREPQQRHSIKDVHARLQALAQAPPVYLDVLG
Sequence of Paired box protein Pax-8 (Q06710 whole entry): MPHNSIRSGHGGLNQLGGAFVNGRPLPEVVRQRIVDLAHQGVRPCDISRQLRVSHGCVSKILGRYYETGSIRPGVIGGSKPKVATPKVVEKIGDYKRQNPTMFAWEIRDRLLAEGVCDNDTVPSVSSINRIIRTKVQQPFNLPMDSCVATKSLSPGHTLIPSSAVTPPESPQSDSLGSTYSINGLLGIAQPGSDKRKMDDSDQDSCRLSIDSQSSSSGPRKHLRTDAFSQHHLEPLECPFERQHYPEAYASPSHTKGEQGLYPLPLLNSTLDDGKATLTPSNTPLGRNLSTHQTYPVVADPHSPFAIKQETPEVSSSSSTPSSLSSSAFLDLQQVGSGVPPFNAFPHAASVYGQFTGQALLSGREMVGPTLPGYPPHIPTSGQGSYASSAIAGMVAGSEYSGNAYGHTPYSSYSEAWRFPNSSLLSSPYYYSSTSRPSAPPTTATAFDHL
Sequence of Tyrosine-protein kinase Fer (P16591 whole entry): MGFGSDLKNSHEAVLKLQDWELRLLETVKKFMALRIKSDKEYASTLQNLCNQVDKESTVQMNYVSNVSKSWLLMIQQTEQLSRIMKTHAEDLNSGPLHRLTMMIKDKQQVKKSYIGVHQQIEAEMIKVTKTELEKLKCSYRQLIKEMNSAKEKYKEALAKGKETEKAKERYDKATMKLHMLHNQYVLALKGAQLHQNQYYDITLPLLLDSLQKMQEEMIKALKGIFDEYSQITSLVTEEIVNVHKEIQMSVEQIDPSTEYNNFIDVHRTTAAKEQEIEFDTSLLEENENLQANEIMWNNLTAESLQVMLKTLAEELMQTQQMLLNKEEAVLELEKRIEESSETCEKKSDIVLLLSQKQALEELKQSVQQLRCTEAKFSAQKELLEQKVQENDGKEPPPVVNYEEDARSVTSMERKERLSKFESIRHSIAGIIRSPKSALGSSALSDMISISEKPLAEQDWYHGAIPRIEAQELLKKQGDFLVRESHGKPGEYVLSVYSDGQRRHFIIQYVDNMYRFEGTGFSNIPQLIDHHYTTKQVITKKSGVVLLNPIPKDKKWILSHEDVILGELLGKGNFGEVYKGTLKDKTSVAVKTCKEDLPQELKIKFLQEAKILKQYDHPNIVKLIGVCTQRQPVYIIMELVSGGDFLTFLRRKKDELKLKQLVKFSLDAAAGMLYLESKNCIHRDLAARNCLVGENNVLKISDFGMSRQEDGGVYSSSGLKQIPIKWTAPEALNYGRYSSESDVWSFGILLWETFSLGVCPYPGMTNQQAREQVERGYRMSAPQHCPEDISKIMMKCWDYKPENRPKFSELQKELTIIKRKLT
Sequence of Mitogen-activated protein kinase kinase kinase kinase 4 (O95819 whole entry): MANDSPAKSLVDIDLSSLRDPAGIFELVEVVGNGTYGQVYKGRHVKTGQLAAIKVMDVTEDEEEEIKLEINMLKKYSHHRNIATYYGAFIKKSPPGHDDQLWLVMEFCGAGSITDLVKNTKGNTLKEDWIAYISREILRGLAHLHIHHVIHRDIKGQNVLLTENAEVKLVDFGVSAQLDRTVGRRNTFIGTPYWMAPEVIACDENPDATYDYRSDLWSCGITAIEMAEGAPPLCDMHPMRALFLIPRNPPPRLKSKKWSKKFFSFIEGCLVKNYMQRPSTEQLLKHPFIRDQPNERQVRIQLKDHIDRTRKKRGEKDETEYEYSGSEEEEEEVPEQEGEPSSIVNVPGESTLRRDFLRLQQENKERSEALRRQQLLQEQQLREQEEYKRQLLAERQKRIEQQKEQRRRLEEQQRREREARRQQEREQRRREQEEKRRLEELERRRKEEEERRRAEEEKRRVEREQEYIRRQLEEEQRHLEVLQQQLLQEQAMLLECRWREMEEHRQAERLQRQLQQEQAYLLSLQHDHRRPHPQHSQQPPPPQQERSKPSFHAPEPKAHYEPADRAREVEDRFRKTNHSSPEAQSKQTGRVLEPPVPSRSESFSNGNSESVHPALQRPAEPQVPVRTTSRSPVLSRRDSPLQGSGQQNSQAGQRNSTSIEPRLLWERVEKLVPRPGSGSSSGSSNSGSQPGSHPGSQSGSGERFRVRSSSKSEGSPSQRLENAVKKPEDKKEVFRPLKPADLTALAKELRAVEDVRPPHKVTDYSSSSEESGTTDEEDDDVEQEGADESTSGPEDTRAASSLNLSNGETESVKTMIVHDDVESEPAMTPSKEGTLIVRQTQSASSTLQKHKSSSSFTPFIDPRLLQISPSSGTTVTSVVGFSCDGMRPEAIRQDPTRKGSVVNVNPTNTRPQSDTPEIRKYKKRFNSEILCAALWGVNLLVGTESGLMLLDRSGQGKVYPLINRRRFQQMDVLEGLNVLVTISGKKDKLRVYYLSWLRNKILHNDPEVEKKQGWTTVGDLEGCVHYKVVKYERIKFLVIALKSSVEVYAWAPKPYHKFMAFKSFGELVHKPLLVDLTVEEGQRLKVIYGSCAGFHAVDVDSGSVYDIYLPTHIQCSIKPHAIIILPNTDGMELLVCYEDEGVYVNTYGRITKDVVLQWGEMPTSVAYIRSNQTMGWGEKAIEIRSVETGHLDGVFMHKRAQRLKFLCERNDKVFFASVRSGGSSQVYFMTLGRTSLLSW
Sequence of Serine/threonine-protein kinase PLK4 (O00444 whole entry): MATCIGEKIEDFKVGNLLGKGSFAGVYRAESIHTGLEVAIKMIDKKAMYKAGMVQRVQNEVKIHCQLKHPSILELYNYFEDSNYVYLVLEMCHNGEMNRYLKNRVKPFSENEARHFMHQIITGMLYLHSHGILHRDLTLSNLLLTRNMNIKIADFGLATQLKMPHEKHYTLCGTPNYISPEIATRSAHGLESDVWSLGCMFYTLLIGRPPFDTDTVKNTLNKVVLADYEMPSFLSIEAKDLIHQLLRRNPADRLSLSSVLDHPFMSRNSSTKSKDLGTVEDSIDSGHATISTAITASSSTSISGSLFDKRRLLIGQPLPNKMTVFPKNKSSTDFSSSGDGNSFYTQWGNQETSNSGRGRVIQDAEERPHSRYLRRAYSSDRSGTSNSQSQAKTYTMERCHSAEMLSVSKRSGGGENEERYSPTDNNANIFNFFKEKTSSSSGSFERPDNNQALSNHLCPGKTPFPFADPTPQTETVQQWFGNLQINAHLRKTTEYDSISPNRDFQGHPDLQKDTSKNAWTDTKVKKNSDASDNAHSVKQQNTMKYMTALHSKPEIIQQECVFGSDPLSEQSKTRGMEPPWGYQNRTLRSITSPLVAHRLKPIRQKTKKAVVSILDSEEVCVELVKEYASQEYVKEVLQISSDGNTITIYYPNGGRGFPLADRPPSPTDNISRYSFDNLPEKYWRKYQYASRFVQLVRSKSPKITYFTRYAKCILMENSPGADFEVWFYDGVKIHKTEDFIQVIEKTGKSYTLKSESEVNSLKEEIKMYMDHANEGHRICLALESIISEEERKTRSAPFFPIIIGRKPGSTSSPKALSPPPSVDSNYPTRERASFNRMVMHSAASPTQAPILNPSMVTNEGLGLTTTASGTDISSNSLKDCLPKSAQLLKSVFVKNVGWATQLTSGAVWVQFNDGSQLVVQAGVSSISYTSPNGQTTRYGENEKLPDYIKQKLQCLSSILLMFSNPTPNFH

Take `CC(C)c1ccc(-c2nnn(CCC(=O)O)n2)cc1`: the results for the concentration for half-maximal inhibition (IC50) in assay [1] and in assay [2] were < 160 nM (active) and 48600 nM (active), respectively. Besides, the concentration at half-maximal activity (AC50) in assay [3] was 31600 nM (inconclusive).
For the molecule `COc1cc2c(cc1Nc1nc(Nc3cccc(F)c3C(N)=O)c3cc[nH]c3n1)N(C(=O)CN(C)C)CC2`, the Ki in [4] is 2000 nM (active); in [5] it was > 1580 nM (inactive); in assay [6] it was > 3160 nM (inactive); in assay [7], 1000 nM (active); in assay [8], > 2000 nM (inactive); in assay [9] it was 1.58 nM (active). For the same molecule, the values for the Ki in assay [10], in assay [11] and in assay [12] were > 2000 nM (inactive), > 3980 nM (inactive) and > 5010 nM (inactive), respectively.
As to `CCn1nc(/C=C/c2ccccc2)nc2c(=O)n(C)c(=O)nc1-2`, the IC50 in assay [13] is 10300 nM (active); in [14], 57.2 nM (active); in assay [15], > 73500 nM (inactive). Besides, the half-maximal activity concentration (AC50) in [16] was 4210 nM (active); in assay [17], < 704 nM (active).
